“Also recorded” adds a separate entry of the source. Like-named read-outs stand apart in the source and are kept apart here.
Legend:
[1] = DNA degradation in 10% FBS/PBS (agarose gel); assay type: physicochemical; details: 37° C., 0 to 48 h, [DNA] 100 μg/mL
Protocol: DNA Degradation in 10% FBS/PBS. A 1% (w/v) agarose gel in 1×Tris Acetate EDTA (TAE) containing 1 μg/mL ethidium bromide was used to characterize the degradation of DNA in 10% FBS/PBS over 48 hours. DNA was incubated with serum-containing PBS at 37° C. over time. Samples were stored in −20° C. to stop enzymatic degradation from nucleases at each time point. The concentration of DNA=100 μg/mL. The gel was run at 100 V for 40 minutes and DNA was imaged on a UV transilluminator (Fotodyne, Heartland, Wis.).
DNA Degradation in 10% FBS/PBS. To determine the stability of the DNA to serum exposure, DNA (100 μg/mL) was incubated with serum-containing PBS at 37° C. over a time period of 0 to 48 h. Samples were stored in −20° C. to stop enzymatic degradation from nucleases at each time point. […] It is likely that the nucleases in the serum-containing media are contributing to the degradation of DNA. It is possible to infer a delayed release of DOX due to this degradation of DNA overtime in 10% FBS.

[2] = Stability of DNA in water and PBS (TEM); assay type: physicochemical; details: [DNA] 6 μg/mL
Protocol: Stability of DNA in water and PBS. DNA was prepared in PBS and diluted in H2O and then imaged. Final [DNA]=6 μg/mL.

[3] = Acute toxicity survival in C57BL/6 mice; details: 40 mg/kg dose, n=7
[4] = test system: EL4 cells; experiment: EL4 cytotoxicity, MTT assay; assay type: cell-based
Protocol: EL4 Cytotoxicity. EL4 cells (ATCC, Rockville, Md.) were plated at 10 k cells per well in a 96-well plate. The plated cells were treated in triplicate for 24, 48, or 72 hours with a range of concentrations of 0.001 μg/mL DOX or DOX equivalent to 10 μg/mL, followed by cellular viability analysis via MTT assay. Cells were incubated at 37° C., 5% CO2, and 100% humidity.
EL4 cells were treated in triplicate for 24, 48, and 72 hours with a range of concentrations, followed by cellular viability analysis via an MTT assay.

[5] = Titration of DOX, DNA and DOX/DNA; assay type: physicochemical
Protocol: Titration of DOX, DNA, and DOX/DNA using a weak base. DOX, DNA or DOX/DNA were made in water at an initial volume of 1 mL. DOX equiv. at 600 μg/mL. The pH was then brought down below 2 with 1 M HCl, then the pH was adjusted higher using small volumes (100 μL or 20 μL) of 0.1 M NaOH.

[6] = Pharmacokinetics in EL4-challenged C57BL/6 mice; assay type: in vivo
Protocol: Pharmacokinetics. […] Blood samples were collected from the saphenous vein of the mice at each time point, spun down in a serum collection tube, and the resultant supernatant was analyzed in acidified alcohol for DOX fluorescence using the Multi-Mode reader.
The mice were 6-8-week-old female mice.

[7] = Complete blood count and liver enzyme panel; assay type: in vivo; details: 20 mg/kg DOX or DOX equiv., tail vein, 24 h p.i., C57BL/6 mice, n=3
Protocol: Hematotoxicity and Liver Enzyme Panel. The mice used in this study were 6-12 week-old female C57BL/6/027 mice (Charles River Laboratories, Wilmington, Mass., USA). The mice were administered treatment via tail vein injection. After 24 h, complete blood count (CBC), and liver enzyme levels were measured. Blood for CBC was collected by saphenous vein collection, mixed with EDTA, and analyzed with a hematology analyzer for white blood cells (WBC), red blood cells (RBC), hemoglobin (Hgb), platelets (Plt) and hematocrit (HCT). For the liver enzyme panel, serum was isolated from blood and sent to IDEXX Laboratories, Inc. (Westbrook, Me.) for alkaline phosphatase (ALP), aspartate aminotransferase (AST), alanine aminotransferase (ALT), and total bilirubin analysis.
Complete blood count and liver enzyme panel of DOX/DNA and DOX. A complete blood count and liver enzyme panel were conducted in C57BL/6 mice treated with 20 mg/kg DOX, 20 mg/kg DOX equiv. of DOX/DNA, PBS, or 120 mg/kg DNA, n=3. […] After 24 h p.i., complete blood count (CBC), and liver enzyme levels were measured. Blood was collected by saphenous vein collection, mixed with EDTA, and analyzed with a hematology analyzer for white blood cells (WBC), red blood cells (RBC), hemoglobin (Hgb), platelets (Plt) and hematocrit (HCT). […]

[8] = test system: EL4 cells; experiment: Endocytosis inhibition, EL4 cellular uptake; assay type: cell-based; details: inhibitors CPZ, Filipin III, EIPA, NaN3, PS2 or 4° C., 1 hour treatment
Protocol: Endocytosis Inhibition. EL4 DOX uptake from DOX or DOX/DNA treatment after exposure to inhibitors NaN3 (120 mM), PS2 (12 μg/mL), Filipin III (5 μg/mL), CPZ (20 μM), EIPA […], or 4° C. was measured using flow cytometry or spectrofluorimetry. Briefly, cells were primed for 15 minutes with the inhibitors before being treated for 1 hour with DOX or DOX/DNA. Cells containing DOX or DOX/DNA were counted with the flow cytometer using yellow fluorescence, and cells containing DOX/DNA were counted using spectrofluorimetry. Fluorescence was measured using a Guava® easyCyte™ Flow Cytometer (Millipore Sigma, Burlington, Mass.) or the Multi-Mode reader (Biotek Instruments, Winooski, Vt.).
Endocytosis inhibition and the effect on DOX/DNA and DOX uptake. The effect of inhibitors CPZ (20 μM), Fillipin III […], EIPA (20 μM), and various combinations thereof, or 4° C. on EL4 cellular uptake was evaluated for DOX/DNA (see FIG. 22). Chlorpromazine (CPZ) is a clathrin-dependent pathway inhibitor. […] The concentrations chosen for the assay were determined using a dose-response assay for each inhibitor.
DOX uptake by EL4 cells was tested with inhibitors: NaN3 (120 mM), PS2 (12 μg/mL), Filipin III (5 μg/mL), EIPA (20 μM), and 4° C. Uptake was measured using flow cytometry. […] Cells containing DOX were counted with the flow cytometer using yellow fluorescence.

Substance | Degradation in serum [1] | Stability in water or PBS [2] | Acute toxicity [3] | IC50 ([4]; 24 h incubation) [µg/mL] | IC50 ([4]; 24 h incubation, read-out: IC50) [nM] | IC50 ([4]; 48 h incubation) [µg/mL] | IC50 ([4]; 72 h incubation) [µg/mL] | pKa (amine) [5] | pKa (estimated) [5] | pKa (phenol) [5] | Blood circulation residence half-life T1/2 ([6]; 20 mg/kg DOX or DOX equiv. i.v., n=3) [min] | Time of absorption by the tissue ([6]; 20 mg/kg i.v.) [min] | Effect on circulating blood cells and liver enzymes [7] | Cellular uptake pathway [8]
Deoxyribonucleic acid [DNA] | degraded serum in a time dependent manner; also recorded: degraded overtime | largely stable |  |  |  |  |  |  |  |  |  |  |  | 
Doxorubicin |  |  | acute toxicity (cardiac arrest) | 0.313 | 576 | 0.093 | 0.048 | 8.46 | 9.46 | 7.34 | 3 | ~15 | greater impact | primarily via membrane fusion
